US20250034182A1, “PHOSPHOLIPID COMPOUNDS AND METHODS OF MAKING AND USING THE SAME” (priority 2021, published 2025)

Key:
Format in all cases: cell-based
[1] = tested on: Respiratory syncytial virus recombinant with luciferase (RSV-Luc5) in HEp-2 cells; experiment: HEp-2 RSV-Luc5 384-well assay (EC50 RSVFLUC Hep2-384 v2, Example V); conditions: human respiratory syncytial virus, HEp-2, 72 h, read-out: RSV Hep-2 FLuc EC50 (v2) (nM) (per Ex. V)
From the text: HEp-2 cell line was purchased from ATCC (Manassas, VA Cat #CCL-23) and maintained in Dulbecco's […] (DMEM) (Corning, New York, NY, Cat #15-018CM) supplemented with 10% fetal bovine serum (FBS) (Hyclone, Logan, UT, Cat #SH30071-03) and 1× Penicillin-Streptonycin-L-Glutamine (Corning, New York, NY, Cat #30-009-CI). Cells were passaged 2 times per week to maintain sub-confluent densities and were used for experiments at passage 5-20. Respiratory syncytial virus recombinant with luciferase (RSV-Luc5) (≥1×107 TCID50/ml) was purchased from Microbiologics (Saint Cloud, MN). Viral replication was determined in HEp-2 cells in the following manner.
(§1) Compounds are prepared in 100% DMSO in 384-well polypropylene plates (Greiner, Monroe, NC, Cat #784201) with 8 compounds per plate in grouped replicates of 4 at 10 serially diluted concentrations (1:3). The serially diluted compounds were transferred to low dead volume Echo plates (Labcyte, Sunnyvale, CA, Cat #LP-0200).
The test compounds were spotted to 384-well assay plates (Greiner, Monroe, NC, Cat #781091) at 200 nL per well. HEp-2 cells were harvested and suspended in DMEM (supplemented with 10% FBS and 1× Penicillin-Streptomycin-L-Glutamine) and seeded to the pre-spotted assay plates at 4,000 cells per well in 30 μL. RSV-Luc5 viruses were diluted in DMEM (supplemented with 10% FBS and 1× Penicillin-Streptomycin-L-Glucamine) at 200,000 Infectious Units (IU) per mL and 10 μL per well was added to the assay plates containing cells and compounds, for an MOI=0.5. The assay plates were incubated for 3 days at 37° C. and 5% CO2. At the end of incubation, One-Glo reagent (Promega, Madison, WI, Cat #E6120) was prepared. The assay plates and One-Glo reagent were equilibrated to room temperature for at least 15 minutes. 40 μL per well of One-Glo reagent was added and the plates were incubated at room temp for 15 minutes before reading the luminescence signal on an EnVision multimode plate reader (Perkin Elmer, Waltham, MA). Remdesivir was used as positive control and DMSO was used as negative control. Values were normalized to the positive and negative controls (as 0% and 100% replication, respectively) and data was fitted using non-linear regression analysis by Gilead's dose response tool. The EC50 value for each compound was then determined as the concentration reducing the viral replication by 50%.

[2] = tested on: Respiratory syncytial virus recombinant with luciferase (RSV-Luc5) in NHBE cells; experiment: NHBE RSV-Luc5 384-well assay (EC50 RSVFLUC NHBE-384, Example U); conditions: human respiratory syncytial virus, 72 h, read-out: RSV FLuc NHBE 384 EC50 (v2) (nM) (per Ex. U)
Method: Normal Human Bronchial Epithelial (NHBE) cells were purchased from Lonza (Walkersville, MD Cat #CC2540) and maintained in BEGM Bronchial Epithelial Cell (Growth Medium BulletKit (Lonza CC-3170).
Cells were thawed, expanded, and were used for experiments at passage 2. Respiratory syncytial virus recombinant with luciferase (RSV-Luc5) (≥1×10^7 Infectious Units/ml (IU/ml) determined by TCID50) was purchased from Microbiologics (Saint Cloud, MN). Viral replication was determined in NHBE cells in the following manner.
as §1
The test compounds were spotted to 384-well assay plates (Greiner, Monroe, NC, Cat #781091) at 200 nL per well. NHBE cells were harvested and suspended in BEGM Bronchial Epithelial Cell Growth Medium BulletKit and seeded to the pre-spotted assay plates at 5,000 cells per well in 30 μL. RSV-Luc5 virus was diluted in BEGM Bronchial Epithelial Cell Growth Medium BulletKit at 500,000 Infectious Units (IU) per mL and 10 μL per well was added to the assay plates containing cells and compounds, for an MOI of 1. The assay plates were incubated for 3 days at 37° C. and 5% CO2. At the end of incubation, One-Glo reagent (Promega, Madison, WI, Cat #E6120) was prepared. The assay plates and One-Glo reagent were equilibrated to room temperature for at least 15 minutes. 40 μL per well of One-Glo reagent was added and the plates were incubated at room temperature for 15 minutes before reading the luminescence signal on an EnVision multimode plate reader (Perkin Elmer, Waltham, MA). Remdesivir was used as positive control and DMSO was used as negative control. Values were normalized to the positive and negative controls (as 0% and 100% replication, respectively) and data was fitted using non-linear regression analysis by Gilead's dose response tool. The EC50 value for each compound was defined as the concentration reducing the viral replication by 50%.

[3] = RSV HEP2-CC50-384-V2 (per Ex. V); conditions: human
[4] = RSV NHBE CC50 384 V2 (per Ex. U); conditions: human

SMILES | EC50 [1] [nM] | EC50 [2] [nM] | CC50 at 3 days [3] [nM] | CC50 at 3 days [4] [nM] | CC50 at 3 days ([3]; HEp-2 cells, 384-well, read-out: RSV HEP2-CC50-384-V2 (nM) (per Ex. V)) | CC50 at 3 days ([4]; NHBE cells, 384-well, read-out: RSV NHBE CC50 384 V2 (nM) (per Ex. U))
CCCCCCCCCCCCCCCCCC[C@@H](COP(=O)(O)OC[C@@]1(C#N)O[C@@H](c2ccc3c(N)ncnn23)[C@H](O)[C@@H]1O)OCc1cc(Cl)cc(C#N)c1 [Compound 87, ((2R,3S,4R,5S)-5-(4-aminopyrrolo[2,1-f][1,2,4]triazin-7-yl)-2-cyano-3,4-dihydroxytetrahydrofuran-2-yl)methyl ((S)-2-((3-chloro-5-cyanobenzyl)oxy)icosyl) hydrogen phosphate] | 443 | 133 | > 34800 | 3450 | – | –
CCCCCCCCCCCCCC[C@@H](COP(=O)(O)OC[C@@]1(C#N)O[C@@H](c2ccc3c(N)ncnn23)[C@H](O)[C@@H]1O)OCc1cc(F)cc(C#N)c1 [Compound 86, ((2R,3S,4R,5S)-5-(4-aminopyrrolo[2,1-f][1,2,4]triazin-7-yl)-2-cyano-3,4-dihydroxytetrahydrofuran-2-yl)methyl ((S)-2-((3-cyano-5-fluorobenzyl)oxy)hexadecyl) hydrogen phosphate] | 546 | 25 | > 50000 | 2900 | – | –
CCCCCCCCCCCCCCCCCCOC[C@](C)(COP(=O)(O)OC[C@@]1(C#N)O[C@@H](c2ccc3c(N)ncnn23)[C@H](O)[C@@H]1O)OCc1cc(F)cc(C#N)c1 [Compound 94, ((2R,3S,4R,5S)-5-(4-aminopyrrolo[2,1-f][1,2,4]triazin-7-yl)-2-cyano-3,4-dihydroxytetrahydrofuran-2-yl)methyl ((R)-2-((3-cyano-5-fluorobenzyl)oxy)-2-methyl-3-(octadecyloxy)propyl) hydrogen phosphate] | 339 | 59 | > 50000 | 16000 | – | –
CCCCCCCCCCCCCCCCOC[C@@H](COP(=O)(O)OC[C@@]1(C#N)O[C@@H](c2ccc3c(N)ncnn23)[C@H](O)[C@@H]1O)OCc1cc(Cl)cc(C#N)c1 [Compound 98, ((2R,3S,4R,5S)-5-(4-aminopyrrolo[2,1-f][1,2,4]triazin-7-yl)-2-cyano-3,4-dihydroxytetrahydrofuran-2-yl)methyl ((S)-2-((3-chloro-5-cyanobenzyl)oxy)-3-(hexadecyloxy)propyl) hydrogen phosphate] | 34 | 11 | – | 2900 | – | –
CCCCCCCCCCCCCCCCCC[C@@H](COP(=O)(O)OC[C@@]1(C#N)O[C@@H](c2ccc3c(N)ncnn23)[C@H](O)[C@@H]1O)OCc1ccccc1 [Compound 93, ((2R,3S,4R,5S)-5-(4-aminopyrrolo[2,1-f][1,2,4]triazin-7-yl)-2-cyano-3,4-dihydroxytetrahydrofuran-2-yl)methyl ((S)-2-(benzyloxy)icosyl) hydrogen phosphate] | 3060 | 663 | > 50000 | 8140 | – | –
CCCCCCCCCCCCCCCCOC[C@@H](COP(=O)(O)OC[C@@]1(C#N)O[C@@H](c2ccc3c(N)ncnn23)[C@H](O)[C@@H]1O)OCc1ccccc1 [Compound 92, ((2R,3S,4R,5S)-5-(4-aminopyrrolo[2,1-f][1,2,4]triazin-7-yl)-2-cyano-3,4-dihydroxytetrahydrofuran-2-yl)methyl ((S)-2-(benzyloxy)-3-(hexadecyloxy)propyl) hydrogen phosphate] | 194 | 47 | > 50000 | 9560 | – | –
CCCCCCCCCCCCCCCCCCC[C@H](COP(=O)(O)OC[C@@]1(C#N)O[C@@H](c2ccc3c(N)ncnn23)[C@H](O)[C@@H]1O)Oc1ccc(C#N)c(F)c1 [Compound 85, ((2R,3S,4R,5S)-5-(4-aminopyrrolo[2,1-f][1,2,4]triazin-7-yl)-2-cyano-3,4-dihydroxytetrahydrofuran-2-yl)methyl ((R)-2-(4-cyano-3-fluorophenoxy)henicosyl) hydrogen phosphate] | 93 | 11 | > 50000 | 1440 | – | –
CCCCCCCCCCCCCCCCCC[C@@H](COP(=O)(O)OC[C@@]1(C#N)O[C@@H](c2ccc3c(N)ncnn23)[C@H](O)[C@@H]1O)Oc1cc(F)cc(C#N)c1 [Compound 96, ((2R,3S,4R,5S)-5-(4-aminopyrrolo[2,1-f][1,2,4]triazin-7-yl)-2-cyano-3,4-dihydroxytetrahydrofuran-2-yl)methyl ((S)-2-(3-cyano-5-fluorophenoxy)icosyl) hydrogen phosphate] | 368 | 67 | > 38100 | 5240 | – | –
CCCCCCCCCCCCC[C@@H](COP(=O)(O)OC[C@@]1(C#N)O[C@@H](c2ccc3c(N)ncnn23)[C@H](O)[C@@H]1O)OCc1cc(F)cc(C#N)c1 [Compound 97, ((2R,3S,4R,5S)-5-(4-aminopyrrolo[2,1-f][1,2,4]triazin-7-yl)-2-cyano-3,4-dihydroxytetrahydrofuran-2-yl)methyl ((S)-2-((3-cyano-5-fluorobenzyl)oxy)pentadecyl) hydrogen phosphate] | 1490 | 45 | – | – | > 43900 | 3910
CCCCCCCCCCCCCCCCCCOC[C@H](COP(=O)(O)OC[C@@]1(C#N)O[C@@H](c2ccc3c(N)ncnn23)[C@H](O)[C@@H]1O)Oc1ccc(C#N)nc1 [Compound 24] | – | 4 | – | 937 | – | –
